Measurements published in the NIST ThermoML archive (doi:10.1016/j.jct.2009.07.014).
Numbers after ± are expanded uncertainties.

Assay: excess molar enthalpy (molar enthalpy of mixing); xn = mol fraction of the nth substance listed
Details: 101.3 kPa, Liquid, Flow calorimetry

CCCCO [butan-1-ol] + CCCCCCC
excess molar enthalpy [kcal/mol]
Details | 298.15 K | 313.15 K
x2 = 0.0502 | 0.0176 ± 0.000741 | 0.0246 ± 0.00098
x2 = 0.0999 | 0.0352 ± 0.00098 | –
x2 = 0.1 | – | 0.049 ± 0.00134
x2 = 0.1504 | 0.0519 ± 0.00129 | –
x2 = 0.1505 | – | 0.0727 ± 0.00177
x2 = 0.2 | 0.0674 ± 0.00158 | –
x2 = 0.2001 | – | 0.0944 ± 0.00217
x2 = 0.2498 | 0.0823 ± 0.00186 | –
x2 = 0.2499 | – | 0.115 ± 0.00263
x2 = 0.2998 | 0.096 ± 0.00215 | –
x2 = 0.2999 | – | 0.134 ± 0.00287
x2 = 0.3497 | 0.108 ± 0.00239 | –
x2 = 0.3498 | – | 0.151 ± 0.00335
x2 = 0.4004 | 0.119 ± 0.00263 | 0.166 ± 0.00359
x2 = 0.4496 | 0.129 ± 0.00287 | 0.179 ± 0.00382
x2 = 0.5001 | 0.137 ± 0.00311 | –
x2 = 0.5002 | – | 0.19 ± 0.00406
x2 = 0.5498 | 0.144 ± 0.00311 | –
x2 = 0.5499 | – | 0.198 ± 0.0043
x2 = 0.5996 | 0.148 ± 0.00311 | –
x2 = 0.5997 | – | 0.202 ± 0.0043
x2 = 0.6504 | 0.149 ± 0.00311 | –
x2 = 0.6505 | – | 0.204 ± 0.0043
x2 = 0.6999 | 0.147 ± 0.00311 | 0.202 ± 0.0043
x2 = 0.7501 | 0.143 ± 0.00311 | 0.197 ± 0.0043
x2 = 0.7998 | 0.135 ± 0.00287 | 0.189 ± 0.00406
x2 = 0.8502 | 0.125 ± 0.00263 | 0.175 ± 0.00382
x2 = 0.8997 | – | 0.155 ± 0.00359
x2 = 0.8998 | 0.11 ± 0.00239 | –
x2 = 0.9497 | 0.0863 ± 0.00203 | 0.121 ± 0.00287
